Test results reported in ChEMBL document CHEMBL6127070, “Design, synthesis, and molecular dynamic simulations of some novel benzo[d]thiazoles with anti-virulence activity against Pseudomonas aeruginosa” (Eur J Med Chem, 2024).
Active and inactive are the calls of the source. The calls are words filed in the database; no cut-off is given here.

Columns and labels:
Klebsiella pneumoniae = experiment: Antimicrobial activity against Klebsiella pneumoniae ATCC 700603 assessed as growth inhibition zone by agar diffusion method; assay type: functional
Escherichia coli = experiment: Antimicrobial activity against Escherichia coli ATCC 25922 assessed as growth inhibition zone by agar diffusion method; assay type: functional
Pseudomonas aeruginosa [1] = experiment: Antimicrobial activity against Pseudomonas aeruginosa ATCC 27853 assessed as growth inhibition zone by agar diffusion method; assay type: functional
Staphylococcus aureus = experiment: Antimicrobial activity against Staphylococcus aureus ATCC 43300 assessed as growth inhibition zone by agar diffusion method; assay type: functional
Bacillus subtilis = experiment: Antimicrobial activity against Bacillus subtilis ATCC 6633 assessed as growth inhibition zone by agar diffusion method; assay type: functional
Candida albicans = experiment: Antimicrobial activity against Candida albicans ATCC 60193 assessed as growth inhibition zone by agar diffusion method; assay type: functional
Pseudomonas aeruginosa [2] = experiment: Antibacterial activity against Pseudomonas aeruginosa by CLSI protocol based broth microdilution method; assay type: functional; settings: for MIC: Pseudomonas aeruginosa
Pseudomonas aeruginosa [3] = experiment: Antibacterial activity against Pseudomonas aeruginosa assessed as effect on bacterial growth at 18.75 microg/ml incubated for 24 hrs by growth curve analysis; assay type: functional, organism-based; settings: dose 18.75 µg/ml
Pseudomonas aeruginosa [4] = experiment: Inhibition of biofilm formation in Pseudomonas aeruginosa at sub-MIC by crystal violet staining based analysis relative to control; assay type: functional
Pseudomonas aeruginosa [5] = experiment: Inhibition of biofilm formation in Pseudomonas aeruginosa assessed as absorbance by measuring OD at 570 nm at sub-MIC by crystal violet staining based analysis (reference value: 0.635 +/- 0.014); assay type: functional
Pseudomonas aeruginosa [6] = experiment: Antivirulence activity in Pseudomonas aeruginosa assessed as inhibition of pyocyanin production at sub-MIC by chloroform-HCl extraction method relative to control; assay type: functional
Pseudomonas aeruginosa [7] = experiment: Antivirulence activity in Pseudomonas aeruginosa assessed as inhibition of rhamnolipids production at sub-MIC by spectrophotometric method relative to control; assay type: functional
Pseudomonas aeruginosa [8] = experiment: Antivirulence activity in Pseudomonas aeruginosa assessed as inhibition of pyocyanin production by measuring OD at […] at sub-MIC by chloroform-HCl extraction method relative to control; assay type: functional
Pseudomonas aeruginosa [9] = experiment: Antibacterial activity against Pseudomonas aeruginosa assessed as effect on bacterial growth at 9.375 microg/ml incubated for 24 hrs by growth curve analysis; assay type: functional, organism-based; settings: dose 9.375 µg/ml
Pseudomonas aeruginosa [10] = experiment: Antibacterial activity against Pseudomonas aeruginosa assessed as bacterial mortality relative to control; assay type: functional
[11] = target: T1, Transcriptional activator protein LasR (Pseudomonas aeruginosa (strain ATCC 15692 / PAO1 / 1C / PRS 101 / LMG12228), UniProt P25084); experiment: Inhibition of Pseudomonas aeruginosa LasR in Escherichia coli DH5 transfected with lacZ reporter and JN105 production plasmid incubated for 4 hrs by beta-galactosidase reporter based miller test
T1 sequence (P25084 whole entry): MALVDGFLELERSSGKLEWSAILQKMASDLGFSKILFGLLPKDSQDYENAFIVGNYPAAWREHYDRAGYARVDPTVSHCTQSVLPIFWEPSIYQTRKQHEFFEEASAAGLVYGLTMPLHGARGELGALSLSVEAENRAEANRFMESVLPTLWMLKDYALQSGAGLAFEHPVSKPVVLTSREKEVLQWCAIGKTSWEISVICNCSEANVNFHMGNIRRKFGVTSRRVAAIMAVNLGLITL

Pseudomonas aeruginosa [12] = experiment: Antibacterial activity against Pseudomonas aeruginosa assessed as effect on bacterial growth at 37.5 microg/ml incubated for 24 hrs by growth curve analysis; assay type: functional, organism-based; settings: dose 37.5 µg/ml

SMILES	inhibition zone (IZ) (Klebsiella pneumoniae)	inhibition zone (IZ) (Escherichia coli)	inhibition zone (IZ) (Pseudomonas aeruginosa [1])	inhibition zone (IZ) (Staphylococcus aureus)	inhibition zone (IZ) (Bacillus subtilis)	inhibition zone (IZ) (Candida albicans)	SubMIC (Pseudomonas aeruginosa [2])	MIC (Pseudomonas aeruginosa [2])	Activity (Pseudomonas aeruginosa [3])	inhibition (INH) (Pseudomonas aeruginosa [4])	OD (Pseudomonas aeruginosa [5])	inhibition (INH) (Pseudomonas aeruginosa [6])	inhibition (INH) (Pseudomonas aeruginosa [7])	OD (Pseudomonas aeruginosa [8])	Activity (Pseudomonas aeruginosa [9])	mortality (Pseudomonas aeruginosa [10])	IC50 [11]	Activity (Pseudomonas aeruginosa [12])	inhibition (Pseudomonas aeruginosa [4])	inhibition (Pseudomonas aeruginosa [7])
Brc1ccc(-c2ccnc3c(-c4nc5ccccc5s4)cnn23)cc1	17 mm	18 mm	19 mm	19 mm	16 mm	20 mm	18.75 µg/mL	37.5 µg/mL	inactive	20%	0.508	15.5%	9.5%	0.376	–	–	–	–	–	–
Cc1ccc(-c2ccnc3c(-c4nc5ccccc5s4)cnn23)cc1	26 mm	22 mm	24 mm	26 mm	20 mm	28 mm	9.375 µg/mL	18.8 µg/mL	–	59.1%	0.26	59.6%	45.3%	0.18	inactive	–	–	–	–	–
CC[C@H]1OC(=O)[C@H](C)[C@@H](O[C@H]2C[C@@](C)(OC)[C@@H](O)[C@H](C)O2)[C@H](C)[C@@H](O[C@@H]2O[C@H](C)C[C@H](N(C)C)[C@H]2O)[C@](C)(OC)C[C@@H](C)C(=O)[C@H](C)[C@@H](O)[C@]1(C)O [CLARITHROMYCIN]	–	–	–	–	–	–	–	–	–	–	–	–	–	–	–	29.11%	–	–	–	–
O=C(O)c1cn(C2CC2)c2cc(N3CCNCC3)c(F)cc2c1=O [CIPROFLOXACIN]	–	–	–	–	–	–	–	–	–	–	–	–	–	–	–	16.99%	–	–	–	–
CN1CCN(c2ccc(/C=C(\C#N)c3nc4ccccc4s3)cc2)CC1	27 mm	26 mm	26 mm	28 mm	25 mm	30 mm	9.375 µg/mL	18.8 µg/mL	–	77%	0.146	74.6%	58.5%	0.113	inactive	–	1370 nM	–	–	–
N#C/C(=C\c1ccc(N2CCCCC2)cc1)c1nc2ccccc2s1	24 mm	25 mm	23 mm	24 mm	21 mm	25 mm	9.375 µg/mL	18.8 µg/mL	–	52.3%	0.303	43.6%	34.9%	0.251	inactive	–	–	–	–	–
N#C/C(=C\c1ccc(N2CCCC2)cc1)c1nc2ccccc2s1	26 mm	24 mm	25 mm	27 mm	22 mm	28 mm	9.375 µg/mL	18.8 µg/mL	–	63.9%	0.229	64.9%	51%	0.156	inactive	–	1550 nM	–	–	–
c1ccc(-c2ccnc3c(-c4nc5ccccc5s4)cnn23)cc1	21 mm	19 mm	20 mm	20 mm	17 mm	21 mm	18.75 µg/mL	37.5 µg/mL	inactive	25.7%	0.472	22.2%	13.3%	0.346	–	–	–	–	–	–
COc1ccc(-c2ccnc3c(-c4nc5ccccc5s4)cnn23)cc1	19 mm	22 mm	22 mm	17 mm	19 mm	23 mm	9.375 µg/mL	18.8 µg/mL	–	46.1%	0.342	39.8%	28.6%	0.268	inactive	–	–	–	–	–
Cc1cc(C)n2ncc(-c3nc4ccccc4s3)c2n1	19 mm	17 mm	17 mm	18 mm	15 mm	20 mm	37.5 µg/mL	75 µg/mL	–	–	0.631	8.5%	–	0.407	–	–	–	inactive	inactive	inactive
Nc1[nH]ncc1-c1nc2ccccc2s1	18 mm	16 mm	16 mm	15 mm	15 mm	17 mm	37.5 µg/mL	75 µg/mL	–	–	0.612	4.5%	–	0.425	–	–	–	inactive	inactive	inactive
OC(Cn1cncn1)(Cn1cncn1)c1ccc(F)cc1F [FLUCONAZOLE]	–	–	–	–	–	30 mm	–	–	–	–	–	–	–	–	–	–	–	–	–	–
Clc1ccc(-c2ccnc3c(-c4nc5ccccc5s4)cnn23)cc1	25 mm	20 mm	23 mm	25 mm	21 mm	26 mm	9.375 µg/mL	18.8 µg/mL	–	54.8%	0.287	53.9%	42.5%	0.205	inactive	–	–	–	–	–
CC1CCN(c2ccc(/C=C(\C#N)c3nc4ccccc4s3)cc2)CC1	27 mm	22 mm	22 mm	22 mm	20 mm	24 mm	9.375 µg/mL	18.8 µg/mL	–	50.1%	0.317	40.7%	30.9%	0.264	inactive	–	–	–	–	–
Cc1nc2c(-c3nc4ccccc4s3)cnn2c(C)c1Cl	22 mm	21 mm	21 mm	19 mm	21 mm	22 mm	18.75 µg/mL	37.5 µg/mL	inactive	36.1%	0.406	31.5%	21.2%	0.305	–	–	–	–	–	–
C[C@@H](O)[C@H]1C(=O)N2C(C(=O)O)=C(SCCNC=N)C[C@H]12 [IMIPENEM ANHYDROUS]	18 mm	22 mm	12 mm	24 mm	20 mm	–	–	93.9 µM	–	–	–	–	–	–	–	–	–	–	–	–
N#C/C(=C\c1ccc(N2CCOCC2)cc1)c1nc2ccccc2s1	20 mm	24 mm	21 mm	23 mm	19 mm	24 mm	18.75 µg/mL	37.5 µg/mL	inactive	39.7%	0.383	35.1%	24.3%	0.289	–	–	–	–	–	–
Fc1ccc(-c2ccnc3c(-c4nc5ccccc5s4)cnn23)cc1	26 mm	21 mm	25 mm	24 mm	25 mm	30 mm	9.375 µg/mL	18.8 µg/mL	–	69.4%	0.194	69.4%	54.3%	0.136	inactive	–	1100 nM	–	–	–
